These results are taken from PubChem BioAssay (NCI).

Among the test systems are DLD-1 colon; HOP-18 NSCLC; KM20L2 colon; P388 leukemia; P388/ADR leukemia; SN12K1 renal; XF 498 CNS; DMS 114 small cell lung; LXFL 529 NSCLC.
Assay in all cases: NCI tumour cell line growth inhibition, 48 h

SMILES strings stand for the structures.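 Interpolation was linear, between the two tested concentrations surrounding the appropriate level; five concentrations were tested over 48 hours in 96-well plates. TGI: concentration producing complete growth inhibition.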

Turning to `Cc1cc(C)c(C2=NO[C@@H]3[C@H]2C(=O)C=C2N(Cc4ccccc4)CCO[C@@]23O)c(C)c1`, the TGI with DLD-1 colon, in the experiment with HOP-18 NSCLC, in the experiment on KM20L2 colon, in the experiment on P388 leukemia, in the experiment with P388/ADR leukemia and in the experiment on SN12K1 renal was over 100 µM in each case. This molecule yielded a TGI in the experiment with XF 498 CNS of over 100 µM.
Consider `Nc1ncnc2c1ncn2C1C(O)C=C(CO)C1O` (centres undefined), for which the TGI in the experiment with DLD-1 colon is over 625 µM; in the experiment on DMS 114 small cell lung it was over 625 µM; in the experiment on HOP-18 NSCLC, over 625 µM; in the experiment on KM20L2 colon it was over 625 µM; in the experiment on SN12K1 renal it was over 625 µM; with XF 498 CNS, under 0.0625 µM.
In the case of `CC(C)C(Nc1c2ccccc2[n+](C)c2ccccc12)C(=O)O` (centres undefined), the TGI in the experiment on DLD-1 colon, with DMS 114 small cell lung, in the experiment on HOP-18 NSCLC, in the experiment on KM20L2 colon, in the experiment on LXFL 529 NSCLC and with XF 498 CNS was over 100 µM in each case.
For the molecule `COc1cc(CNc2nc3c(NC(C)=O)cc(C(F)(F)F)cc3nc2-c2ccccc2)cc(OC)c1OC`, the TGI in the experiment on DLD-1 colon, in the experiment with DMS 114 small cell lung, with KM20L2 colon, in the experiment on LXFL 529 NSCLC and in the experiment with XF 498 CNS was over 100 µM each time.
